# Experiments:
# anaesthetized cat = assay: Effect on blood pressure, heart rate and adrenaline vasopressure response at anaesthetized cat; type: in vivo
# Experimental: Effect on blood pressure, heart rate and adrenaline
# (§1) (a) Cats (2.6-4.0 kg) of either sex anaesthetized with pentobarbitone sodium (40 mg/kg i.v.) and showing basal mean arterial blood pressure below 150 mm (Hg) were categorised as normotensive and above 150 mm Hg as hypertensive. Arterial blood pressure (EP) was recorded from one of the carotid artery through a stathum P23 DC pressure transducer and 7P1 low level DC preamplifier on a Grass Model P7 Polygraph, Signals from 7P1 preamplifier were used to trigger 7P4 Tachograph preamplifier for recording the heart rate (HR). Right femoral vein and Trachea were cannulated for intravenous injections and artificial ventilation respectively. Control responses to intravenous injection of noradrenaline (2-4 ug); acetyl choline (1-2 ug); histamine (1-2 ug) and isoprenaline (1-2 ug) were taken before and after the administration of test doses of each compounds.
# [1] = test system: Langendorff perfused rat heart; assay: Cardioprotective activity, Langendorff perfused rat heart, prolong period of ischemic insult
# Experimental: Further, in Langendorff perfused rat heart preparation subjected to even up to 90 mm. global ischemia, the compound at 0.001 ug/ml conc.
# The rats were killed by decaptitation, heart were rapidly excised and placed in ice-cold HEPES tyrode buffer. Then isolated hearts were perfused retrogradely through coronary arteries using the Langendorff technique. The perfusion buffer consisted (in mM) NaCl 137, KCl 5.4, CaCl2 1.8, MgCl2 1.0, glucose 11.2 and HEPES 3.0. The buffer (pH 7.4) was continuously gassed with oxygen and maintained at 37° C. Coronary flow rate was maintained at 10 ml/min. The heart contracted spontaneously.
# The perfused heart was allowed to equillibrate for 30 min. before initiation of any insult protocol. The test compounds were given at the time of reperfusion. Some of the compounds were dissolved in ethanol. Final concentration of ethanol in the perfusion buffer was 0.0001% and had no effect of its own on the parameter used.
# (b) For prolong period of ischemic insult (Becker, L. C. & Ambrosio, G. Myocardial consenquences of reperfusion. Prog. Cardiovas. Dis., 30, 23-44, 1987). Ischemia was initiated by stopping the flow for 30 min. followed by 30 min. reperfusion.
# cat = assay: Drug antagonism studies at 2 uMol dose i.v. in cat; type: in vivo; details: 2 uMol i.v.
# Source text: (B) In viva Drug antagonism studies at 2 uMol dose i.v. in cat: […]
# [2] = test system: Naturally occurring hypertensive cat; assay: Effect on blood pressure, heart rate and adrenaline vasopressor response, naturally occurring hypertensive cat; type: in vivo; details: n = 4
# Experimental: (§2) 2. Effect on blood pressure, heart rate and adrenaline vasopressor response of anaesthetized (pentobarbitone sodium 40 & 60 mg/kg i.p. in cat and rat respectively) normotensive & hypertensive rat & cat model preparations.
# as §1
# [3] = test system: Isolated Guinea pig ileum; assay: Isolated Guinea pig ileum preparation; details: in vitro
# [4] = test system: Normotensive rat model preparation; assay: Effect on blood pressure, heart rate and adrenaline vasopressor response, normotensive rat model preparation; type: in vivo; details: n = 2
# Experimental: as §2
# Isolated aortic strip = assay: Isolated aortic strip, endothelin induced contraction
# Normotensive cat = assay: Effect on blood pressure, heart rate and adrenaline vasopressor response, normotensive cat; type: in vivo; details: n = 4
# Experimental: as §2, §1
# perfused rat heart = assay: Langendorffs perfused rat heart preparation, chronotropic effect
# [5] = test system: Hypertensive rat model preparation; assay: Effect on blood pressure, heart rate and adrenaline vasopressor response, hypertensive rat model preparation; type: in vivo
# Experimental: as §2
# Rat aortic ring = Rat aortic ring preparation, NE induced contraction; details: in vitro
# Site of action: ICV = type: in vivo; details: dose 0.34-1.36
# [6] = Felis catus, iv, 10.0 umol/kg i.v.
# [7] = Felis catus, iv, 2.0 umol/kg i.v.
# [8] = Felis catus, iv, 10.0 umol/kg i.v., read-out: B.P. fall %
# [9] = 0.001 ug/ml at the time of reperfusion, up to 90 mm. global ischemia
smiles,measurement,setting,value
"O=C1CCCCN1CCCN1CCN(c2cccc(C(F)(F)F)c2)CC1 [C6 H4-3-CF3, n=2, 1-[4-(3-trifluoromethylphenyl)piperazin-1-yl]-3-[2-oxopiperidin-1-yl]propane]",Adrenaline vasopressure response (R/Pt),anaesthetized cat; 2.0 umol/kg i.v.,Pt (potentiation (was within 20%))
same,Dur.,anaesthetized cat; 10.0 umol/kg i.v.,Tr
same,inhibition in vivo at 10 µmol/kg,anaesthetized cat; [6],25%
"O=C1CCCN1CCCN1CCN(c2cccc(F)c2)CC1 [C6 H4-3-F, n=1, 1-[4-(3-fluorophenyl)piperazin-1-yl)-3-[2-oxopyrrolidin-1-yl]propane]",Adrenaline vasopressure response (R/Pt),anaesthetized cat; 10.0 umol/kg i.v.,R
same,inhibition in vivo at 2 µmol/kg,anaesthetized cat; [7],80%
"O=C1CCCCN1CCCN1CCN(c2ccc(Cl)cc2)CC1 [C6 H4-4-Cl, n=2, 1-[4-(4-chlorophenyl)piperazin-1-yl]-3-[2-oxopiperidin-1-yl]propane]",inhibition in vivo at 2 µmol/kg,anaesthetized cat; [7],20%
same,inhibition in vivo at 10 µmol/kg,anaesthetized cat; [6],25%
"O=C1CCCCN1CCCN1CCN(c2ccccn2)CC1 [2-Pyridyl, n=2, 1-[4-(2-pyridyl)piperazin-1-yl]-3-[2-oxopiperidin-1-yl]propane]",Adrenaline vasopressure response (R/Pt),anaesthetized cat; 10.0 umol/kg i.v.,Pt (potentiation (was within 20%))
same,inhibition in vivo at 2 µmol/kg,anaesthetized cat; [7],28%
"O=C1CCCN1CCCN1CCN(c2cccc(Cl)c2)CC1 [C6 H4-3-Cl, n=1, 1-[4-(3-chlorophenyl)piperazin-1-yl]-3-[2-oxopyrrolidin-1-yl]propane]",Adrenaline vasopressure response (R/Pt),anaesthetized cat; 2.0 umol/kg i.v.,Pt-
"O=C1CCCN1CCCN1CCN(c2ccccn2)CC1 [2-Pyridyl, n=1]",Adrenaline vasopressure response (R/Pt),anaesthetized cat; 10.0 umol/kg i.v.,Pt (potentiation (was within 20%))
same,Blood pressure fall % at 2 µmol/kg,"anaesthetized cat; Felis catus, iv, 2.0 umol/kg i.v., read-out: B.P. fall %",22%
same,Blood pressure fall % at 10 µmol/kg,anaesthetized cat; [8],40%
"CCc1ccccc1N1CCN(CCCN2CCCC2=O)CC1 [C6 H4-2-C2 H5, n=1, 1-[4-(2-ethylphenyl)piperazin-1-Yl]-3-[2-oxopyrrolidin-1-yl]propane]",Adrenaline vasopressure response (R/Pt),anaesthetized cat; 2.0 umol/kg i.v.,Pt (potentiation (was within 20%))
"O=C1CCCCN1CCCN1CCN(c2cccc(Cl)c2)CC1 [C6 H4-3-Cl, n=2, 1-[4-(3-chlorophenyl)piperazin-1-yl]-3-[2-oxopiperidin-1-yl]propane]",inhibition in vivo at 2 µmol/kg,anaesthetized cat; [7],33%
same,inhibition in vivo at 10 µmol/kg,anaesthetized cat; [6],10%
"O=C1CCCN1CCCN1CCN(c2ccc(F)cc2)CC1 [C6 H4-4-F, n=1, 1-[4-(4-fluorophenyl)piperazin-1-yl]-3-[2-oxopyrrolidin-1-yl]propane]",Incidence of reperfusion induced arrhythmia,[1]; [9],abolished
same,"Revival of normal rhythmic contraction, start",[1]; [9],≤ 2 mm.
same,"Cardioprotective effect against myocardial stunning, dose",[1]; compared with antihypertensive dose,much smaller dose than antihypertensive dose
same,Reduction of antihypertensive effect by pretreatment,cat; Dup-753 (angiotension II-receptor antagonist) pretreatment,33%
same,Antihypertensive effect after pretreatment,cat; atropine sulphate pretreatment,failed to alter
same,Reduction of antihypertensive effect by pretreatment,cat; captopril (ACE inhibitor) pretreatment,33%
same,Fall in blood pressure after pretreatment,cat; glibenclamide (KATP blocker) pretreatment,only partially reduced
same,Antihypertensive effect after pretreatment,cat; mepyramine maleate pretreatment,failed to alter
same,Reduction of antihypertensive effect by pretreatment,"cat; prazosin (alpha1-adrenergic receptor blocker) pretreatment, significantly",90%
same,Antihypertensive effect after pretreatment,cat; propranolol pretreatment,failed to alter
same,Reduction of antihypertensive effect by pretreatment,"cat; verapamil (Ca++ channel blocker) pretreatment, significantly",50%
same,Antihypertensive effect after pretreatment,cat; yohimbine pretreatment,failed to alter
same,Adrenaline vasopressure response % inhibition,[2]; 10 uMol/kg i.d.,49%
same,B.P. Fall duration,[2]; 10 uMol/kg i.d.,110 min
same,"Adrenaline vasopressure response, R (Reversal)",[2]; 20 uMol/kg i.d.,26%
same,B.P. Fall duration,[2]; 20 uMol/kg i.d.,> 156.75 min
same,Endothelin response,[3],relaxation rather than contraction
same,Adrenaline vasopressure response % inhibition,[4]; 2 uMol/kg i.v.,+7%
same,Adrenaline vasopressure response % inhibition,[4]; 10 uMol/kg i.v.,+14%
same,Adrenaline vasopressure response % inhibition,[4]; 20 uMol/kg i.v.,-9.5%
same,Endothelin response after washing the preparation,Isolated aortic strip; after washing the preparation,relaxation rather than contraction
same,Endothelin induced contraction,Isolated aortic strip; in vitro,inhibited significantly
same,Adrenaline vasopressure response % inhibition,Normotensive cat; 10 uMol/kg i.d.,26%
same,B.P. Fall duration,Normotensive cat; 10 uMol/kg i.d.,85 min
same,B.P. Fall duration,Normotensive cat; 20 uMol/kg i.d.,> 102.5 min
same,"Negative chronotropic effect, duration",perfused rat heart; 1 ug,10 min
same,"Negative chronotropic effect, duration",perfused rat heart; 3 ug (higher doses 3-5 ug),14 min
same,"Negative chronotropic effect, duration",perfused rat heart; 5 ug (higher doses 3-5 ug),5 min
same,inhibition at 0.001 mg,"perfused rat heart; Rattus norvegicus, 1 ug, read-out: Negative chronotropic effect",30%
same,inhibition at 0.003 mg,"perfused rat heart; Rattus norvegicus, 3 ug (higher doses 3-5 ug), read-out: Negative chronotropic effect",26%
same,inhibition at 0.005 mg,"perfused rat heart; Rattus norvegicus, 5 ug (higher doses 3-5 ug), read-out: Negative chronotropic effect",5%
same,Adrenaline vasopressure response (R/Pt),anaesthetized cat; 10.0 umol/kg i.v.,R
same,inhibition in vivo at 2 µmol/kg,anaesthetized cat; [7],9%
same,Adrenaline vasopressure response % inhibition,"[5]; 5 uMol/kg i.d., n = 3",33%
same,B.P. Fall duration,"[5]; 5 uMol/kg i.d., n = 3",51 min
same,Adrenaline vasopressure response % inhibition,"[5]; 10 uMol/kg i.d., n = 5",23%
same,B.P. Fall duration,"[5]; 10 uMol/kg i.d., n = 5",76 min
same,Adrenaline vasopressure response % inhibition,"[5]; 20 uMol/kg i.d., n = 1",54%
same,B.P. Fall duration,"[5]; 20 uMol/kg i.d., n = 1",100 min
same,NE induced contraction,Rat aortic ring,inhibited
same,B.P. fall Dur.,Site of action: ICV,10 to 15 min
"COc1ccccc1N1CCN(CCCN2CCCC2=O)CC1 [C6 H4-2-OCH3, n=1]",B.P. fall %,anaesthetized cat; 2.0 umol/kg i.v.,19%
same,Adrenaline vasopressure response (R/Pt),anaesthetized cat; 10.0 umol/kg i.v.,R
same,Blood pressure fall % at 10 µmol/kg,anaesthetized cat; [8],23%
"O=C1CCCCN1CCCN1CCN(c2ccc(F)cc2)CC1 [C6 H4-4-F, n=2, 1-[4-(4-fluorophenyl)piperazin-1-yl]-3-[2-oxopiperidin-1-yl]propane]",Adrenaline vasopressure response (R/Pt),anaesthetized cat; 10.0 umol/kg i.v.,R
same,inhibition in vivo at 2 µmol/kg,anaesthetized cat; [7],46%

# Reference: patent US6084097A, “Methods for preparing 1-[4-arylpiperazin-1-yl]-3-[2-oxopyrrolidin/piperidin-1-yl] propanes” (Council of Scientific & Industrial Research, priority 1997, dated 2000)
